Results from the supplement of paper PMC11061612.

How the values were obtained:
Assay in all cases: combination Emax (second highest fraction inhibited in the dose matrix, 72 h); higher = more inhibition; extreme values may be limits of the assay
NCI-H2731 (Mesothelioma) = test system: NCI-H2731 (Mesothelioma)
Outline: (§1)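 Cell lines grown in DMEM/F12 or RPMI with 10% FBS were plated in 1536-well plates and held 24 hours at 37°C, 5% CO2 before 72 hours of exposure to two-drug dose matrices, with DMSO typically at 0.2%. CellTiter-Glo 2.0 luminescence gave viability, which was converted to inhibition. Vehicle wells were set to 0 and blank wells to 1. Combination Emax is the second-highest inhibition in the matrix, and Bliss excess is the observed combination effect minus the expected EA + EB − EA·EB, where EA and EB are the single-agent effects.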

[1] = test system: DAN-G (Pancreatic Carcinoma)
Outline: as §1

[2] = test system: DMS-114 (Small Cell Lung Carcinoma)
Outline: as §1

[3] = test system: NCI-H526 (Small Cell Lung Carcinoma)
Outline: as §1

[4] = test system: SK-GT-2 (Gastric Carcinoma)
Outline: as §1

[5] = test system: SU-DHL-5 (B-Cell Non-Hodgkin's Lymphoma)
Outline: as §1

[6] = test system: NCI-H929 (Plasma Cell Myeloma)
Outline: as §1

[7] = test system: NCCIT (Other Solid Carcinomas)
Outline: as §1

[8] = test system: MN-60 (B-Lymphoblastic Leukemia)
Outline: as §1

[9] = test system: COR-L279 (Small Cell Lung Carcinoma)
Outline: as §1

[10] = test system: MOLM-13 (Acute Myeloid Leukemia)
Outline: as §1

G-361 (Melanoma) = test system: G-361 (Melanoma)
Outline: as §1

[11] = test system: ST486 (Burkitt's Lymphoma)
Outline: as §1

[12] = test system: NCI-H661 (Non-Small Cell Lung Carcinoma)
Outline: as §1

[13] = test system: MOG-G-CCM (Low Grade Glioma)
Outline: as §1

M059J (Glioblastoma) = test system: M059J (Glioblastoma)
Outline: as §1

[14] = test system: NCI-H3122 (Lung Adenocarcinoma)
Outline: as §1

[15] = test system: PC-3 (Prostate Carcinoma)
Outline: as §1

[16] = test system: KMS-12-BM (Plasma Cell Myeloma)
Outline: as §1

[17] = test system: CW-2 (Colorectal Carcinoma)
Outline: as §1

Row | Compound | combination Emax (NCI-H2731 (Mesothelioma)) | combination Emax [1] | combination Emax [2] | combination Emax [3] | combination Emax [4] | combination Emax [5] | combination Emax [6] | combination Emax [7] | combination Emax [8] | combination Emax [9] | combination Emax [10] | combination Emax (G-361 (Melanoma)) | combination Emax [11] | combination Emax [12] | combination Emax [13] | combination Emax (M059J (Glioblastoma)) | combination Emax [14] | combination Emax [15] | combination Emax [16] | combination Emax [17]
1 | CN(C)CCCOc1ccc(-c2ccc3ncc4c(c3c2)n(C2CCOCC2)c(=O)n4C)cn1 [AZD0156] + C=CCn1c(=O)c2cnc(Nc3ccc(N4CCN(C)CC4)cc3)nc2n1-c1cccc(C(C)(C)O)n1 [AZD1775] (first compound max 1 µM, partner max 1 µM) | 0.285 | 0.651 | 0.257 | 0.65 | 0.714 | 0.977 | 0.675 | 0.858 | 0.374 | 0.454 | 0.985 | 0.564 | 0.987 | 0.523 | 0.4 | 0.628 | 0.765 | 0.224 | 0.948 | 0.292
2 | CN(C)CCCOc1ccc(-c2ccc3ncc4c(c3c2)n(C2CCOCC2)c(=O)n4C)cn1 [AZD0156] + CCN(CCO)CCCOc1ccc2c(Nc3cc(CC(=O)Nc4cccc(F)c4)[nH]n3)ncnc2c1 [AZD2811] (first compound max 1 µM, 7x7, partner max 1 µM) | 0.144 | 0.321 | 0.232 | 0.373 | 0.0747 | 0.931 | 0.815 | 0.17 | 0.207 | 0.776 | 0.983 | 0.256 | 0.913 | 0.0442 | 0.367 | 0.338 | 0.446 | 0.16 | 0.495 | 0.123
3 | CN(C)CCCOc1ccc(-c2ccc3ncc4c(c3c2)n(C2CCOCC2)c(=O)n4C)cn1 [AZD0156] + C[C@@H]1COCCN1C2=NC(=NC(=C2)C3(CC3)[S@](=N)(=O)C)C4=C5C=CNC5=NC=C4 [AZD6738] (first compound max 1 µM, 7x7, partner max 10 µM) | 0.244 | 0.696 | 0.515 | 0.529 | 0.311 | 1 | 0.778 | 0.656 | 0.402 | 0.694 | 0.997 | 0.628 | 0.948 | 0.486 | 0.413 | 0.637 | 0.746 | 0.484 | 1 | 0.543
4 | CN(C)CCCOc1ccc(-c2ccc3ncc4c(c3c2)n(C2CCOCC2)c(=O)n4C)cn1 [AZD0156] + O=C(c1cc(Cc2n[nH]c(=O)c3ccccc23)ccc1F)N1CCN(C(=O)C2CC2)CC1 [Olaparib] (first compound max 3 µM, partner max 3 µM) | 0.201 | 0.576 | 0.414 | 0.408 | 0.273 | 0.794 | 0.863 | 0.194 | 0.119 | 0.692 | 0.563 | 0.267 | 0.621 | 0.217 | 0.289 | 0.318 | 0.251 | 0.199 | 0.438 | 0.177
5 | C=CCn1c(=O)c2cnc(Nc3ccc(N4CCN(C)CC4)cc3)nc2n1-c1cccc(C(C)(C)O)n1 [AZD1775] + C1CN(CCC1(C(=O)N[C@@H](CCO)C2=CC=C(C=C2)Cl)N)C3=NC=NC4=C3C=CN4 [Capivasertib] (first compound max 3 µM, partner max 3 µM) | 0.416 | 0.848 | 0.649 | 0.907 | 0.83 | 0.99 | 0.981 | 0.963 | 0.555 | 0.818 | 1 | 0.724 | 0.971 | 0.648 | 0.748 | 0.826 | 0.622 | 0.394 | 0.984 | 0.522
6 | C=CCn1c(=O)c2cnc(Nc3ccc(N4CCN(C)CC4)cc3)nc2n1-c1cccc(C(C)(C)O)n1 [AZD1775] + C[C@@H]1COCCN1C2=NC(=NC(=C2)C3(CC3)[S@](=N)(=O)C)C4=C5C=CNC5=NC=C4 [AZD6738] (first compound max 1 µM, partner max 10 µM) | 0.464 | 0.763 | 0.511 | 0.873 | 0.799 | 1 | 0.713 | 0.905 | 0.64 | 0.675 | 0.999 | 0.676 | 0.979 | 0.689 | 0.682 | 0.777 | 0.872 | 0.498 | 1 | 0.682
7 | C=CCn1c(=O)c2cnc(Nc3ccc(N4CCN(C)CC4)cc3)nc2n1-c1cccc(C(C)(C)O)n1 [AZD1775] + O=C(c1cc(Cc2n[nH]c(=O)c3ccccc23)ccc1F)N1CCN(C(=O)C2CC2)CC1 [Olaparib] (first compound max 1 µM, partner max 10 µM) | 0.349 | 0.646 | 0.363 | 0.758 | 0.82 | 1 | 0.473 | 0.759 | 0.366 | 0.858 | 0.991 | 0.564 | 0.979 | 0.512 | 0.456 | 0.618 | 0.736 | 0.207 | 0.905 | 0.392
8 | CCN(CCO)CCCOc1ccc2c(Nc3cc(CC(=O)Nc4cccc(F)c4)[nH]n3)ncnc2c1 [AZD2811] + C=CCn1c(=O)c2cnc(Nc3ccc(N4CCN(C)CC4)cc3)nc2n1-c1cccc(C(C)(C)O)n1 [AZD1775] (first compound max 1 µM, partner max 1 µM) | 0.382 | 0.623 | 0.243 | 0.566 | 0.769 | 1 | 0.323 | 0.781 | 0.291 | 0.662 | 1 | 0.477 | 0.983 | 0.543 | 0.377 | 0.553 | 0.627 | 0.237 | 0.944 | 0.274
9 | COc1nnc2ccc(N3CCC(c4ccc(OCCN5CCN(C)C(=O)[C@H]5C)cc4)CC3)nn12 [AZD5153] + CN(CC[C@H](CSC1=CC=CC=C1)NC2=C(C=C(C=C2)S(=O)(=O)NC(=O)C3=CC=C(C=C3)N4CCC(CC4)[C@H](C5=CC=CC=C5C6=CC=C(C=C6)Cl)O)S(=O)(=O)C(F)(F)F)CCO [AZD4320] (first compound max 1 µM, 7x7, partner max 1 µM) | – | 0.345 | – | – | 0.346 | 0.994 | – | – | – | – | 1 | 0.67 | – | 0.272 | – | – | – | 0.347 | 1 | –
10 | Cc1c2c(nn1C)CSCc1cc(n(C)n1)CSc1cc(c3ccccc3c1)OCCCc1c(C(=O)O)n(C)c3c-2c(Cl)ccc13 [AZD5991] + Cn1cnc2c(F)c(Nc3ccc(Br)cc3Cl)c(C(=O)NOCCO)cc21 [Selumetinib] (first compound max 1 µM, 7x7, partner max 3 µM) | 0.151 | 0.84 | 0.43 | – | 0.154 | 1 | 1 | 0.579 | 0.323 | 0.18 | 1 | 0.992 | 0.993 | 0.462 | 0.195 | 0.264 | 0.881 | 0.245 | 1 | 0.314
11 | CS(=O)(=O)CCNCc1ccc(-c2ccc3ncnc(Nc4ccc(OCc5cccc(F)c5)c(Cl)c4)c3c2)o1 [Lapatinib] + NC1(c2ccc(-c3nc4ccn5c(=O)[nH]nc5c4cc3-c3ccccc3)cc2)CCC1 [MK-2206] (first compound max 10 µM, 7x7, partner max 10 µM) | 0.894 | – | 0.893 | 0.864 | – | – | 1 | 0.883 | 0.904 | 0.978 | – | – | 0.908 | – | 0.523 | 0.756 | 0.653 | – | – | 0.611
12 | CCc1c2c(nc3ccc(O)cc13)-c1cc3c(c(=O)n1C2)COC(=O)[C@]3(O)CC [SN-38] + O=C(c1cc(Cc2n[nH]c(=O)c3ccccc23)ccc1F)N1CCN(C(=O)C2CC2)CC1 [Olaparib] (first compound max 0.3 µM, 7x7, partner max 10 µM) | 0.503 | – | 0.491 | 1 | – | 1 | 0.95 | 0.274 | 0.858 | 1 | – | 0.459 | 0.702 | 0.548 | 0.49 | 0.987 | 0.932 | – | – | 0.604
13 | Cc1nc(-c2cn3c(n2)-c2ccc(-c4cnn(C(C)(C)C(N)=O)c4)cc2OCC3)n(C(C)C)n1 [Taselisib] + O=C(Nc1ccc2[nH]nc(-c3ccncc3)c2c1)[C@@H]1CCN(CC(=O)N2CCN(c3ccc(-c4ncccn4)cc3)CC2)C1 [SCH772984] (first compound max 10 µM, 7x7, partner max 5 µM) | 0.553 | – | 0.732 | 0.189 | – | – | 1 | 0.693 | 0.31 | 0.835 | – | – | 0.654 | – | 0.577 | 0.564 | 0.978 | – | – | 0.546
